Broadly, the Ki is the dissociation constant of the complex between target and ligand, obtained from inhibition or displacement.

For the test, the target named is human PDE10A2 (Homo sapiens (Human), UniProt Q9Y233). The experiment in a line: PDE10 fluorescence polarization (IMAP FP) inhibition assay. It counts as biochemical. The note with it: read-out: PDE10A Ki. The method, then: The activity of the compounds in accordance with the present invention as PDE10 inhibitors may be readily determined without undue experimentation using a fluorescence polarization (FP) methodology that is well known in the art (Huang, W., et al., J. Biomol Screen, 2002, 7: 215).
human PDE10A2, sequence (Q9Y233 267-1055): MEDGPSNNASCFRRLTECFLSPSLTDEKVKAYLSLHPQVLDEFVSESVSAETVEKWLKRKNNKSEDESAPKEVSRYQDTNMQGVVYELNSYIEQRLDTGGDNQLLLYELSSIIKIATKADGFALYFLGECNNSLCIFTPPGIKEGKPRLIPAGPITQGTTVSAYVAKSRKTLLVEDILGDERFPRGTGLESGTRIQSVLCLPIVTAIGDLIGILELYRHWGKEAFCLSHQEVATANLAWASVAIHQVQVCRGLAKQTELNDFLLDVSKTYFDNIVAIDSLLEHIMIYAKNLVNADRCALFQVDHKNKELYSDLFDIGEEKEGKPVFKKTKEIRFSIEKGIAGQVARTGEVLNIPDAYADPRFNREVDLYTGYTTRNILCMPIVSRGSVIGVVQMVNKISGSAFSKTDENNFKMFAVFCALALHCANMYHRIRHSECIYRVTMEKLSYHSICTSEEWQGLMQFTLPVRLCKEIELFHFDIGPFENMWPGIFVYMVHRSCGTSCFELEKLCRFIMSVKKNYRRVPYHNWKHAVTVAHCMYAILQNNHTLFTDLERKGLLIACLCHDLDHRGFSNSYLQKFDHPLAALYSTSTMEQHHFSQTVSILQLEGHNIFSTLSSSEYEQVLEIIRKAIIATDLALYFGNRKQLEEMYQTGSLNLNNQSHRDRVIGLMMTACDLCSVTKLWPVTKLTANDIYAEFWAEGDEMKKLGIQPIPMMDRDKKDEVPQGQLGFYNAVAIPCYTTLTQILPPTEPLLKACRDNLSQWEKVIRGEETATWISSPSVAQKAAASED
In a typical experiment the PDE10 inhibitory activity of the compounds of the present invention was determined in accordance with the following experimental method. PDE10A2 was amplified from human fetal brain cDNA (Clontech, Mountain View, Calif.) using a forward primer corresponding to nucleotides 56-77 of human PDE10A2 (Accession No. AF127480, Genbank Identifier 4894716), containing a Kozak consensus sequence, and a reverse primer corresponding to nucleotides 2406-2413 of human PDE10A2 (Accession No. AF127480, Genbank Identifier 4894716). Amplification with Easy-A polymerase (Stratagene, La Jolla, Calif.) was 95° C. for 2 minutes followed by thirty three cycles of 95° C. for 40 seconds, 55° C. for 30 seconds, and 72° C. for 2 minutes 48 seconds. Final extension was 72° C. for 7 minutes. The PCR product was TA cloned into pcDNA3.2-TOPO (Invitrogen, Carlsbad, Calif.) according to standard protocol. AD293 cells with 70-80% confluency were transiently transfected with human PDE10A2/pcDNA3.2-TOPO using Lipofectamine 2000 according to manufacturer specifications (Invitrogen, Carlsbad, Calif.). Cells were harvested 48 hours post-transfection and lysed by sonication (setting 3, 10×5 sec pulses) in a buffer containing 20 mM HEPES, 1 mM EDTA and protease inhibitor cocktail (Roche). Lysate was collected by centrifugation at 75,000×g for 20 minutes. Supernatant containing the cytoplasmic fraction was used for evaluation of PDE10A2 activity. The fluorescence polarization assay for cyclic nucleotide phosphodiesterases was performed using an IMAP® FP kit supplied by Molecular Devices, Sunnyvale, Calif. (product # R8139). IMAP® technology has been applied previously to phosphodiesterase assays (Huang, W., et al., J. Biomol Screen, 2002, 7: 215). Assays were performed at room temperature in 384-well microtiter plates with an incubation volume of 20.2 μL. Solutions of test compounds were prepared in DMSO and serially diluted with DMSO to yield 8 μL of each of 10 solutions differing by 3-fold in concentration, at 32 serial dilutions per plate. 100% inhibition is determined using a known PDE10 inhibitor, which can be any compound that is present at 5,000 times its Ki value in the assay described as follows, such as papaverine (see Siuciak, et al. Neuropharmacology (2006) 51:386-396; Becker, et al. Behav Brain Res (2008) 186(2):155-60; Threlfell, et al., J Pharmacol Exp Ther (2009) 328(3):785-795), 2-{4-[pyridin-4-yl-1-(2,2,2-trifluoroethyl)-1H-pyrazol-3-yl]phenoxymethyl}quinoline succinic acid or 2-[4-(1-methyl-4-pyridin-4-yl-1H-pyrazol-3-yl)-phenoxymethyl]quinoline succinic acid (see Schmidt, et al. J Pharmacol Exp Ther (2008) 325:681-690; Threlfell, et al., J Pharmacol Exp Ther (2009) 328(3): 785-795). 0% of inhibition is determined by using DMSO (1% final concentrations).
A Labcyte Echo 555 (Labcyte, Sunnyvale, Calif.) is used to dispense 200 nL from each well of the titration plate to the 384 well assay plate. A solution of enzyme (1/1600 dilution from aliquots; sufficient to produce 20% substrate conversion) and a separate solution of FAM-labeled cAMP PDE from Molecular Devices (product # R7506), at a final concentration of 50 nM are made in the assay buffer (10 mM Tris HCl, pH 7.2, 10 mM MgCl2, 0.05% NaN3 0.01% Tween-20, and 1 mM DTT). The enzyme and the substrate are then added to the assay plates in two consecutive additions of 10 μL, and then shaken to mix. The reaction is allowed to proceed at room temperature for 30 minutes. A binding solution is then made from the kit components, comprised of 80% Solution A, 20% Solution B and binding reagent at a volume of 1/600 the total binding solution.
For orientation: Fluorescence polarisation rises when a labelled molecule tumbles more slowly, as on binding a larger partner.
Consider `Cc1nc(NCc2cnn(C)c2)cc(OC[C@H]2C[C@@H]2c2ccc(C(F)F)cn2)n1` (stereo in doubt) [Compound 2-17, 6-({2-[5-(difluoromethyl)pyridin-2-yl]cyclopropyl}methoxy)-2-methyl-N-[(1-methyl-1H-pyrazol-4-yl)methyl]pyrimidin-4-amine], for which the Ki was 3.5 nM.

On to `Cc1nc(NCc2ccncc2C)cc(OCC2CC2c2ccccn2)n1` (stereo not shown) [Compound 14-3, 2-methyl-N-((3-methylpyridin-4-yl)methyl)-6-((2-(pyridin-2-yl)cyclopropyl)methoxy)pyrimidin-4-amine], for which the Ki was 5.3 nM. Turning to `COc1ccc([C@H]2C[C@@H]2COc2cc(NCc3nnc(C)s3)nc(N)n2)nc1` [Compound 2-53, S,S-6-{[(1S,2S)-2-(5-methoxypyridin-2-yl)cyclopropyl]methoxy}-N-4-[(5-methyl-1,3,4-thiadiazol-2-yl)methyl]pyrimidine-2,4-diamine], the Ki is 0.05 nM. As for `Cc1nc(NCc2cnn(C)c2)cc(OCC2CC2c2ccccn2)n1` (stereo not shown) [Compound 1-2, 2-methyl-N-[(1-methyl-1H-pyrazol-4-yl)methyl]-6-[(2-pyridin-2-ylcyclopropyl)methoxy]pyrimidin-4-amine], the figure is 0.03 nM; as for `Cc1nc(C)c(CNc2cc(OC[C@H]3C[C@@H]3c3ccccn3)nc(C3CC3)n2)s1` [Compound 3-11, S,S-2-cyclopropyl-N-[(2,4-dimethyl-1,3-thiazol-5-yl)methyl]-6-[(2-pyridin-2-ylcyclopropyl)methoxy] pyrimidin-4-amine], 1.6 nM; as for `Cc1nc(NCc2sc(C)nc2C)c(C)c(OC[C@H]2C[C@@H]2c2ccccn2)n1` [Compound 2-47, S,S-N-[(2,4-dimethyl-1,3-thiazol-5-yl)methyl]-2,5-dimethyl-6-[(2-pyridin-2-ylcyclopropyl)methoxy] pyrimidin-4-amine], 41.7 nM. As for `Cc1nnc(CNc2nc(N)nc(OC[C@H]3C[C@@H]3c3ccc4c(n3)CCC4)c2F)s1` [Compound 3-25, S,S-6-(((1S,2S)-2-(6,7-dihydro-5H-cyclopenta[b]pyridin-2-yl)cyclopropyl)methoxy)-5-fluoro-N4-((5-methyl-1,3,4-thiadiazol-2-yl)methyl)pyrimidine-2,4-diamine], the inhibitory constant (Ki) came to 0.09 nM. As to `Cc1nc(NCc2nnc(C3CC3)s2)cc(OC[C@H]2C[C@@H]2c2ccccn2)n1` [Compound 2-37, S,S-N-[(5-cyclopropyl-1,3,4-thiadiazol-2-yl)methyl]-2-methyl-6-[(2-pyridin-2-ylcyclopropyl)methoxy] pyrimidin-4-amine], the Ki came to 3.8 nM. Consider `COc1cccnc1[C@H]1C[C@@H]1COc1cc(NCc2cnn(C)c2)nc(C)n1` (stereo in doubt) [Compound 2-14, 6-{[2-(3-methoxypyridin-2-yl)cyclopropyl]methoxy}-2-methyl-N-[(1-methyl-1H-pyrazol-4-yl)methyl]pyrimidin-4-amine], for which the Ki amounted to 3.6 nM. Turning to `Cc1cc(CNc2cc(OC[C@H]3C[C@@H]3c3ccc4ccccc4n3)nc(C)n2)n(C)n1` [Compound 2-4, S,S-N-[(1,3-dimethyl-1H-pyrazol-5-yl)methyl]-2-methyl-6-[(2-quinolin-2-ylcyclopropyl)methoxy] pyrimidin-4-amine], the Ki came out at 0.6 nM. Regarding `Cc1nc(NCc2nnc(C)s2)cc(OC[C@H]2C[C@@H]2c2ccc3ncccc3n2)n1` [Compound 2-27, S,S-2-methyl-N-[(5-methyl-1,3,4-thiadiazol-2-yl)methyl]-6-{[2-(1,5-naphthyridin-2-yl)cyclopropyl]methoxy} pyrimidin-4-amine], the inhibitory constant (Ki) amounted to 0.02 nM.

In the case of `Cc1ccc([C@H]2C[C@@H]2COc2nc(C)nc(NCc3nnc(C)s3)c2Cl)nc1` [Compound 2-58, S,S-5-chloro-2-methyl-6-{[(1S,2S)-2-(5-methylpyridin-2-yl)cyclopropyl]methoxy}-N-[(5-methyl-1,3,4-thiadiazol-2-yl)methyl]pyrimidin-4-amine], the Ki is 3.9 nM.

For `COc1ccc([C@H]2C[C@@H]2COc2nc(N)nc(NCc3nnc(C)s3)c2F)nc1` [Compound 3-13, 5-fluoro-6-{[(1S,2S)-2-(5-methoxypyridin-2-yl)cyclopropyl]methoxy}-N-4-[(5-methyl-1,3,4-thiadiazol-2-yl)methyl]pyrimidine-2,4-diamine], the Ki is 0.5 nM. Consider `Cc1nc(NCc2cc(C)on2)cc(OCC2CC2c2ccccn2)n1` (stereo not shown) [Compound 12-2, 2-methyl-N-((5-methylisoxazol-3-yl)methyl)-6-((2-(pyridin-2-yl)cyclopropyl)methoxy)-pyrimidin-4-amine], for which the Ki stood at 1.1 nM. Consider `Cc1nc(NCc2nnc(C)s2)cc(OC[C@H]2C[C@@H]2c2ccc(-c3cccnc3)cn2)n1` (stereo in doubt) [Compound 8-8, 6-{[2-(3,3′-bipyridin-6-yl)cyclopropyl]methoxy}-2-methyl-N-[(5-methyl-1,3,4-thiadiazol-2-yl)methyl] pyrimidin-4-amine], for which the Ki came to 1 nM. Turning to `Cc1nc(NCc2nnc(C)s2)cc(OC[C@H]2C[C@@H]2c2ccc(C3CC3)cn2)n1` (stereo in doubt) [Compound 9-2, 6-{[2-(5-cyclopropylpyridin-2-yl)cyclopropyl]methoxy}-2-methyl-N-[(5-methyl-1,3,4-thiadiazol-2-yl)methyl]pyrimidin-4-amine], the Ki stood at 0.08 nM. The figure for `Cc1ccc([C@H]2C[C@@H]2COc2nc(N)nc(NCc3nnc(C)s3)c2C#N)nc1` [Compound 16-4, 2-amino-4-{[(1S,2S)-2-(5-methylpyridin-2-yl)cyclopropyl]methoxy}-6-{[(5-methyl-1,3,4-thiadiazol-2-yl)methyl]amino}pyrimidine-5-carbonitrile] is 1.6 nM. As for `Cc1nnc(CNc2nc(N)nc(OC[C@H]3C[C@@H]3c3ccc(Cl)cn3)c2F)s1` [Compound 3-19, 6-{[(1S,2S)-2-(5-chloropyridin-2-yl)cyclopropyl]methoxy}-5-fluoro-N-4-[(5-methyl-1,3,4-thiadiazol-2-yl)methyl]pyrimidine-2,4-diamine], the figure is 3.6 nM; as for `Cc1nnc(CNc2cc(OC[C@H]3C[C@@H]3c3ccccn3)nc(CF)n2)s1` [Compound 3-8, S,S-2-(fluoromethyl)-N-[(5-methyl-1,3,4-thiadiazol-2-yl)methyl]-6-[(2-pyridin-2-ylcyclopropyl)methoxy] pyrimidin-4-amine], 1.1 nM.

These data come from patent US9062059B2, “Pyrimidine PDE10 inhibitors” (Merck Sharp & Dohme Corp., priority 2011, dated 2015).
